Test results from publication PMC11930087, “Mobility of four structural regions drives isoform-specific properties of photoenzyme LPOR in plants” (The Journal of Biological Chemistry, 2025).

Assays:
TaPOR1 = target: T1, TaPOR1 (Triticum aestivum, UniProt Q41578); conditions: 400 uM OPT lipids; substrate; read-out: illuminated, 400 uM OPT, KM^L
T1 construct: gene PORA
T1 sequence (Q41578 75-388): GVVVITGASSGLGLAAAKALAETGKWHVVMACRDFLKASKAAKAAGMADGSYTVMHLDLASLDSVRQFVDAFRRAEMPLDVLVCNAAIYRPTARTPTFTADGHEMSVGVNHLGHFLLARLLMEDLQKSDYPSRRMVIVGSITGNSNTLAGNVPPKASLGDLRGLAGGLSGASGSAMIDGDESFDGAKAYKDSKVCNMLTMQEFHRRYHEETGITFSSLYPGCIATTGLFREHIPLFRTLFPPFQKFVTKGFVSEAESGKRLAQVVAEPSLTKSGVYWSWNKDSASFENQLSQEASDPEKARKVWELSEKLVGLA
Text: (§1) All samples were thawed in darkness, illuminated for 20 s to initiate the reaction, and then frozen again and remeasured. […] These plots also resembled saturation curves, to which a hyperbolic function similar to the modified Michaelis–Menten equation could be fitted (Figs. 3C, S5, Materials and Methods).

AtPORB = target: T2, AtPORB (Arabidopsis thaliana, UniProt P21218); conditions: 400 uM OPT lipids; substrate; read-out: illuminated, 400 uM OPT, KM^L
T2 construct: gene PORB
T2 sequence (P21218 67-401): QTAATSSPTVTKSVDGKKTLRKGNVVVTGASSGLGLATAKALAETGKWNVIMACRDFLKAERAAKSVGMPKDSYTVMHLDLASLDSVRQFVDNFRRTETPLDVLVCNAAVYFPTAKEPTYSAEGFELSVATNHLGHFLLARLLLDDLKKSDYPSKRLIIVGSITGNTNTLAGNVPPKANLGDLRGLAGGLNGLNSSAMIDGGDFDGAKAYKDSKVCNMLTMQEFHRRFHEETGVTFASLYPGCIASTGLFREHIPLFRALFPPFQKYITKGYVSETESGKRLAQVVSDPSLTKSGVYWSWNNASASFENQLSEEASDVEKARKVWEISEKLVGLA
Text: as §1

AtPORA = target: T3, AtPORA (Arabidopsis thaliana, UniProt Q42536); conditions: 400 uM OPT lipids; substrate; read-out: illuminated, 400 uM OPT, KM^L
T3 construct: gene PORA
T3 sequence (Q42536 70-405): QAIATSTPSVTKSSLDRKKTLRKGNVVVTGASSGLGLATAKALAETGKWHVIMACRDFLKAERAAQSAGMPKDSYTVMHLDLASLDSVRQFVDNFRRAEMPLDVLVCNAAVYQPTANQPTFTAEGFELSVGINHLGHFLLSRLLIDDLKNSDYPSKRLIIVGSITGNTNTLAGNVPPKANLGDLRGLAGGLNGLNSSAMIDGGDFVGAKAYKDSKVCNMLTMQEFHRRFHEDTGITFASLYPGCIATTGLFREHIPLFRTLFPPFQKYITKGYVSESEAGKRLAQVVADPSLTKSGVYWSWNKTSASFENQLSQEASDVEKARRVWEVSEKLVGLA
Text: as §1

AtPORC = target: T4, AtPORC (Arabidopsis thaliana, UniProt O48741); conditions: 400 uM OPT lipids; substrate; read-out: illuminated, 400 uM OPT, KM^L
T4 construct: gene PORC
T4 sequence (O48741 68-401): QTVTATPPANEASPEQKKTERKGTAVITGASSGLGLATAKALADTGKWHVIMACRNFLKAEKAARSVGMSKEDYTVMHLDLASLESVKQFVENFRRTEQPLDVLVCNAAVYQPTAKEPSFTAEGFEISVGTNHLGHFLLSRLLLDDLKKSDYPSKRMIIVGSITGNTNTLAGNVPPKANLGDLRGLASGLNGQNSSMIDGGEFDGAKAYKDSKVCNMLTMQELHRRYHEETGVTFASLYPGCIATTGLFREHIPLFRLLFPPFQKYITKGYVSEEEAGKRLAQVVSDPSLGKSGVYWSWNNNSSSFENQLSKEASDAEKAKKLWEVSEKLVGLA
Text: as §1

TaPOR2 = target: T5, TaPOR2 (Triticum aestivum, UniProt A0A3B5XZQ9); conditions: 400 uM OPT lipids; substrate; read-out: illuminated, 400 uM OPT, KM^L
T5 construct: gene LOC123047424
T5 sequence (A0A3B5XZQ9 60-395): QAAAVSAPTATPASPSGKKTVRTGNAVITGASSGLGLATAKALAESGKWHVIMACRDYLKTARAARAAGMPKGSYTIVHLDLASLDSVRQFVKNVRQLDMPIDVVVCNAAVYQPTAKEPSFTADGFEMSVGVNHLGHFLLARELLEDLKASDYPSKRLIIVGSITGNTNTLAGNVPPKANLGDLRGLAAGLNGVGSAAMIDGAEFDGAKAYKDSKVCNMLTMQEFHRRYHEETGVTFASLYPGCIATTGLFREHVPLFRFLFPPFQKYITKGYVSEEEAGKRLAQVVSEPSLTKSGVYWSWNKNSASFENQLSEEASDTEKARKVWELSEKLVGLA
Text: as §1

SlPOR3 = target: T6, SlPOR3 (Solanum lycopersicum, UniProt A0A3Q7J565); experiment: […] K Pchlide fluorescence in darkness, F648/F635 ratio vs NADPH, hyperbolic fit; format: binding; conditions: lipid-free; 5 μM Pchlide, 15 μM LPOR, pH 7.1, room-temperature dark incubation; apparent parameter, exact value in supplement; read-out: KM^D
T6 construct: gene LOC101248079; transit peptide removed; pET15b
T6 sequence (A0A3Q7J565 63-397): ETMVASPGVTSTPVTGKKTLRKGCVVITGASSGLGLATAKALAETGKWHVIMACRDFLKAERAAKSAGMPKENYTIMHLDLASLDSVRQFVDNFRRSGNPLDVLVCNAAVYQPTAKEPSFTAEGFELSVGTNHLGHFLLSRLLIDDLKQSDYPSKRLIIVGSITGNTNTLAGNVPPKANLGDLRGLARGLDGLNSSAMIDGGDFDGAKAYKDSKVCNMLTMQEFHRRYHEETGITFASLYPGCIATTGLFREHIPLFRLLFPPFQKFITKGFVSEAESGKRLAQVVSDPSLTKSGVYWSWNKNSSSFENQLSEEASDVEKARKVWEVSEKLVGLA

Km (TaPOR1): 39.7 µM
Km (AtPORB): 1.3 µM
Km (AtPORA): 2.5 µM
Km (AtPORC): 0.7 µM
Km (TaPOR2): 6.1 µM
Kd (SlPOR3): < 10 µM
SMILES: NC(=O)C1=CN([C@@H]2O[C@H](COP(=O)(O)OP(=O)(O)OC[C@H]3O[C@@H](n4cnc5c(N)ncnc54)[C@H](OP(=O)(O)O)[C@@H]3O)[C@@H](O)[C@H]2O)C=CC1 [NADPH]
